According to paper PMC5866173 (Journal of natural products, 2017):
“Also recorded” adds a separate entry of the source.

Tested on: chloroquine/mefloquine-resistant Dd2 strain of Plasmodium falciparum
Type: cell-based
Details: for antiplasmodial activity (in words): Dd2 strain of P. falciparum

| Compound | antiplasmodial activity (in words) | IC50 (read-out: IC50 against P. falciparum Dd2, chloroquine-resistant Dd2 strain, 72-hour treatment) |
| --- | --- | --- |
| C/C(=C\CC/C(C)=C/C(=O)C[C@]1(C)CCc2cc(O)cc(C)c2O1)CO [Compound 1, (3E,7E)-9-hydroxy-1-[(S)-6-hydroxy-2,8-dimethylchroman-2-yl]-4,8-dimethylnona-3,7-dien-2-one] | inactive |  |
| (R)-2-[(3E,7E)-9-hydroxy-4,8-dimethylnona-3,7-dien-1-yl]-2,8-dimethyl-2H-chromen-6-ol [Compound 9] |  | > 117 µM |
| CC1=CCCC(C)(CC(=O)C[C@]2(C)CCc3cc(O)cc(C)c3O2)OC1 (single isomer, unassigned) [Compound 7, 1-[(R or S)-2,6-dimethyl-2,3,4,7-tetrahydrooxepin-2-yl]-3-[(S)-6-hydroxy-2,8-dimethylchroman-2-yl]propan-2-one] | weak antiplasmodial activity |  |
| COc1cc(C)c2c(c1)CC[C@@](C)(CC(=O)/C=C(\C)CC/C=C(\C)CO)O2 [Compound 5, (3E,7E)-9-hydroxy-1-[(S)-6-methoxy-2,8-dimethylchroman-2-yl]-4,8-dimethylnona-3,7-dien-2-one] | weak antiplasmodial activity; also recorded: moderately active |  |
| C/C(=C/CC/C(C)=C/C(=O)C[C@]1(C)CCc2cc(O)cc(C)c2O1)CO [Compound 2, (3E,7Z)-9-hydroxy-1-[(S)-6-hydroxy-2,8-dimethylchroman-2-yl]-4,8-dimethylnona-3,7-dien-2-one] | weak antiplasmodial activity; also recorded: most potent biological activity among these compounds |  |
| CC1=CCCC(C)(CC(=O)C[C@]2(C)CCc3cc(O)cc(C)c3O2)OC1 (single isomer, unassigned) [Compound 6, 1-[(S or R)-2,6-dimethyl-2,3,4,7-tetrahydrooxepin-2-yl]-3-[(S)-6-hydroxy-2,8-dimethylchroman-2-yl]propan-2-one] | weak antiplasmodial activity |  |
